Results: PMC4528135, “Kinetic Investigations of the Role of Factor Inhibiting Hypoxia-inducible Factor (FIH) as an Oxygen Sensor” (The Journal of Biological Chemistry, 2015)

Tests used:
Type in all cases: biochemical
[1] = biological target: T1, PHD2 (catalytic domain, residues 181–426) (Homo sapiens, UniProt Q9GZT9); test: Steady-state kinetics of PHD2-catalyzed HIF-α CODD/NODD hydroxylation (MALDI-TOF-MS); details: PHD2, 4 μM PHD2, 50 μM Fe(II), 4 mM L-ascorbate, 50 mM HEPES pH 7.5, 37 °C
T1 construct: The catalytic domain of PHD2 (residues 181–426) was purified as described; made in house
Method: (§1) Enzymatic assays were conducted as described ([46], [47]). Unless otherwise stated, the assay mixture typically contained 5 μM FIH, 500 μM substrate, 500 μM 2OG, 1 mM L-ascorbate, and 50 μM Fe(NH4)2(SO4)2 or 4 μM PHD2, 100 μM substrate, 300 μM 2OG, 4 mM L-ascorbate, and 50 μM Fe(NH4)2(SO4)2. For HIF-1α CODD19-mer, the background levels of methionine oxidation resulting from assay conditions were subtracted based on non-enzymatic controls ([48]).
The O2 dependence of FIH-catalyzed reactions was determined by conducting enzymatic assays in an “In vivo 500 Hypoxia Workstation” (Ruskinn) using buffers pre-equilibrated under different pO2 values for 24 h. The O2 dependence of PHD2-catalyzed reactions was determined by conducting enzymatic assays in sealed glass vials with variable N2/O2 contents ([42]). Reactions were stopped by spotting samples onto a matrix-assisted laser desorption/ionization-time of flight mass spectrometry (MALDI-TOF-MS) target plate and immediately mixing with α-cyano-4-hydroxycinnamic acid matrix. Hydroxylation levels were assessed by MALDI-TOF-MS as described ([46]).

PHD2 [2] = biological target: T2, PHD2 (Homo sapiens, UniProt Q9GZT9); test: Stopped-flow UV-visible spectroscopy, PHD2·Fe(II)·2OG·substrate + O2; details: anaerobic 0.8 mM PHD2, 1 mM peptide, 5 mM 2OG, 50 mM HEPES pH 7.5, mixed 1:1 with O2-saturated buffer at 5 °C, double exponential fit
T2 construct: The catalytic domain of PHD2 (residues 181–426) was purified as described; made in house
Method: Stopped-flow UV-visible spectroscopy experiments were performed as described previously ([32], [42]). […] The reaction was observed over 1000 s using a photodiode array detector, and kinetic traces were analyzed using Origin version 8.51 software. Data were fitted with a double exponential function (y = A1 × exp(−kriset) + A2 × exp(−kfallt) + y0). The A1, A2, and y0 parameters were restricted with upper limits to match the observed amplitude/offset changes.
Previously reported pre-steady-state kinetic studies on PHD2 focused on its reaction with CODD HIF-1α 19-mer peptide ([38], [42]); there is no reported information on the rates of PHD2 reaction with O2 in the presence of NODD HIF-1α or HIF-2α substrates. To ascertain whether a slow reaction with O2 under pre-steady-state conditions is common to PHD2-catalyzed hydroxylation of both CODD and NODD, we investigated the reaction of PHD2 with NODD substrates in comparison with CODD for both HIF-1α and HIF-2α. Pre-steady-state reactions of PHD2 were initiated by rapid mixing of anaerobic PHD2·Fe(II)·2OG·HIF-α complexes with O2-saturated buffer at 5 °C. Reactions were initially observed using a photodiode array detector, and difference spectra (in comparison with the reaction with O2-free buffer) were subsequently analyzed.
FIGURE 5. Pre-steady-state kinetics of PHD2-catalyzed HIF-1/2α hydroxylation. […] B, stopped-flow kinetic traces at 520 nm showing absorbance changes in control experiments: Fe(II) only, mix of Fe(II) and 2OG, reaction of PHD2·Fe(II)·2OG complex with O2 in the absence of CODD; reaction of PHD2·Fe(II)·N-oxalylglycine (NOG)·CODD complex with O2. N-Oxalylglycine is an inhibitor of 2OG oxygenases. […] The kinetic traces represent the average of triplicate assays. E, HIF-1/2α peptide hydroxylation, as determined by MALDI-TOF-MS. Reactions were quenched with 1% CF3CO2H at defined time points.

PHD2 [3] = biological target: T2, PHD2; test: Rapid quench-flow, PHD2 pre-steady-state product and succinate formation; details: same mixture as stopped-flow, O2-saturated buffer 1:1, 5 °C, quenched with 1% CF3CO2H
Method: Rapid quench-flow experiments were performed using the same conditions and preparation of the assay mixture as used in stopped-flow experiments. Rapid quench-flow equipment (TgK Scientific Ltd.) in an anaerobic glove box was used for the experiments. Samples were quenched with 1% CF3CO2H and analyzed using MALDI-TOF-MS (peptide hydroxylation) as described above or liquid chromatography-mass spectrometry (LC-MS, for succinate production). For LC-MS, chromatographic separation was performed at 50 °C using a Waters ACQUITY BEH Amide 1.7-μm, 2.1 × 100-mm column on a Waters ACQUITY^TM ultraperformance liquid chromatography system (Waters Corp., Milford, MA). The following eluents were used: mobile phase A: 10% H2O, 90% acetonitrile (v/v), 10 mM ammonium formate; mobile phase B: 50% H2O, 50% acetonitrile (v/v), 10 mM ammonium formate. The elution gradient was 0–7.0 min linear from 10 to 30% B, and 7.0–9.0 min at 10% B for re-equilibration of the column. A constant flow rate of 0.4 ml/min was used. Analytes were detected in negative ionization mode using single reaction monitoring on a Quattro triple quadrupole mass spectrometer (Waters) with a cone voltage of 15 V and a capillary voltage of 3.0 kV. The desolvation temperature was set to 250 °C, and the source temperature was set to 120 °C.
To investigate correlation of the spectroscopic observations with rates of product accumulation, equivalent reactions were analyzed by rapid quench-flow methodology. Anerobically prepared PHD2·Fe(II)·2OG·peptide substrate complexes were mixed with O2-saturated buffer in a 1:1 ratio; reactions were quenched at defined time points with 1% aqueous CF3CO2H. The level of peptide hydroxylation was assessed by MALDI-TOF-MS ([42]), and succinate accumulation was analyzed by LC-MS. To obtain rate constants for product accumulation, the results were fitted with a single exponential function (Fig. 5E and Table 3).

PHD2 [4] = biological target: T2, PHD2; test: Time course of PHD2-catalyzed peptide hydroxylation; details: 4 μM PHD2, 100 μM peptide, 50 μM Fe(II), 300 μM 2OG, 1 mM L-ascorbate, 50 mM HEPES pH 7.5, 37 °C, atmospheric O2; MALDI-TOF-MS; triplicate assays
Method: as §1
FIGURE 3. PHD2- and FIH-catalyzed hydroxylation of HIF-1/2α peptide substrates. A, time course of HIF-1/2α CODD19-mer peptide hydroxylation; B, time course of HIF-1/2α NODD19-mer peptide hydroxylation. Conditions were as follows: 4 μM PHD2, 100 μM peptide, 50 μM Fe(II), 300 μM 2OG, 1 mM L-ascorbate in HEPES 50 mM (pH 7.5) were incubated at 37 °C at atmospheric O2. C, time course of HIF-1α CAD 19- and 35-mer peptide hydroxylation. D, time course of HIF-2α CAD 19- and 35-mer peptide hydroxylation. Conditions were as follows: 5 μM FIH, 500 μM peptide, 50 μM Fe(II), 500 μM 2OG, 1 mM L-ascorbate in HEPES 50 mM (pH 7.5) were incubated at 37 °C at atmospheric O2. The different hydroxylation levels were analyzed by MALDI-TOF-MS. Error bars, S.D. of triplicate assays.

T2 sequence (Q9GZT9 181-426): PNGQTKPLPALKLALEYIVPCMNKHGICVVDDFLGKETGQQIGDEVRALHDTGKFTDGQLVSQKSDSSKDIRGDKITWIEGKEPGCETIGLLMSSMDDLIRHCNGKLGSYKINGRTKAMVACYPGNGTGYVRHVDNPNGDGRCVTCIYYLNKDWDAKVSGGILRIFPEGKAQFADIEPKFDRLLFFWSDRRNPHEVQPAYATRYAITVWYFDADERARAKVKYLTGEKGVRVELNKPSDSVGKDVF
T1 sequence (Q9GZT9 181-426): as above

DLDLEMLAPYIPMDDDFQL [HIF-1α CODD, 19-mer fragment (556–574) of the HIF-1α C-terminal oxygen-dependent degradation domain, PHD2 substrate]
kcat^app [1]: 0.060 ± 0.006 s⁻¹
Stopped-flow, 520 nm (PHD2) krise phase (PHD2 [2]): 0.015 ± 0.005 s⁻¹
Stopped-flow, 520 nm (PHD2) kfall phase (PHD2 [2]; traces average of triplicate): 0.040 ± 0.007 s⁻¹
Rapid quench-flow kproduct (PHD2 [3]; peptide hydroxylation by MALDI-TOF-MS, single exponential fit): 0.0155 ± 0.0012 s⁻¹
Rapid quench-flow ksuccinate (PHD2 [3]; succinate by LC-MS): 0.0130 ± 0.0020 s⁻¹
substrate hydroxylation after 15 min (PHD2 [4]): 70%
